This assay deals with T1, Met kinase domain (GST fusion protein) (Homo sapiens, UniProt P08581).
T1 construct: Purified GST fusion protein containing the Met kinase domain
As to the kind of experiment: Met transphosphorylation assay (ELISA, poly(glu-tyr) substrate).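 Note: Cell-free ELISA with plate-bound poly(Glu:Tyr 4:1) phosphorylated by GST-fused Met kinase domain plus ATP and Mn2+, phosphotyrosine detected by anti-phosphotyrosine antibody with HRP and ABTS read-out.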 It counts as biochemical. Conditions: read-out: Met IC50.

Setting [1] is: plain numbers in column Met IC50 (μM) of Table 2.

Structures are written as SMILES. Read-outs that look alike come from different tables or passages of the source.

Data on 34 molecules can be found in patent US20050009840A1 (SUGEN, INC., priority 2003, published 2005).

T1 sequence (P08581 1078-1345 limits assumed): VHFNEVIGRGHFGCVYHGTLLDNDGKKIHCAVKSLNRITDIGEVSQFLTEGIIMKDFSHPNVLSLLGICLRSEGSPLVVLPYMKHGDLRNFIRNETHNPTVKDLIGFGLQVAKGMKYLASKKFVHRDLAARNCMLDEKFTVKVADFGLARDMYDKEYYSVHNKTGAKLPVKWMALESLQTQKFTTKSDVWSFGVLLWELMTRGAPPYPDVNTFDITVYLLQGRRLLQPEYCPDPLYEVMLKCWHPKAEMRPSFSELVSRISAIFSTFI

As for `Nc1ncc(-c2ccc(C(=O)N3CCC[C@@H]3CN3CCCC3)cc2)cc1OCc1ccccc1Br` [Example I-115, {4-[6-Amino-5-(2-bromo-benzyloxy)-pyridin-3-yl]-phenyl}-[(2R)-2-pyrrolidin-1-ylmethyl-pyrrolidin-1-yl]-methanone], the IC50 came out at 1.75 µM.
On the same count and under the same terms, the result for `CC(Oc1nc(-c2ccc(C(=O)NCCCN3CCCC3)cc2)cnc1N)c1c(Cl)cccc1Cl` (stereo not shown) [II-167, 4-{5-Amino-6-[1-(2,6-dichloro-phenyl)-ethoxy]-pyrazin-2-yl}-N-(3-pyrrolidin-1-yl-propyl)-benzamide] reads 0.22 µM.
For `CC(Oc1cc(-c2ccc(NS(=O)(=O)CCN(C)C)cc2)cnc1N)c1c(F)ccc(F)c1Cl` (stereo not shown) [Example I-288], for the setting “Table 2”, the IC50 was 0.15 µM.
On to `Nc1ncc(-c2ccc3[nH]cc(CN4CCCC4)c3c2)nc1OCc1c(F)ccc(F)c1Cl` [II-62, 3-(2-Chloro-3,6-difluoro-benzyloxy)-5-(3-pyrrolidin-1-ylmethyl-1H-indol-5-yl)-pyrazin-2-ylamine], for which the 50% inhibitory concentration (IC50) was 0.35 µM.
For the molecule `N#Cc1ccccc1COc1cc(-c2ccc(O)cc2)cnc1N` [Example I-131, 2-[2-Amino-5-(4-hydroxy-phenyl)-pyridin-3-yloxymethyl]-benzonitrile], the half-inhibitory concentration (IC50) was found to be 19 µM.
Same read-out and setting: to `Cc1ccc(F)c(COc2cc(-c3ccccc3)cnc2N)c1Cl` [Example I-98, 3-(2-Chloro-6-fluoro-3-methyl-benzyloxy)-5-phenyl-pyridin-2-ylamine] belongs 7.6 µM; to `CC(Oc1nc(-c2cccc(C(=O)NCCCN3CCOCC3)c2)cnc1N)c1c(Cl)ccc(F)c1Cl` (stereo not shown) [II-135, 3-{5-Amino-6-[1-(2,6-dichloro-3-fluoro-phenyl)-ethoxy]-pyrazin-2-yl}-N-(3-morpholin-4-yl-propyl)-benzamide], 0.26 µM.
With `CC(Oc1cc(OCCC2CCCCC2)cnc1N)c1c(F)ccc(F)c1Cl` (stereo not shown) [Example I-536, 3-[1-(2-Chloro-3,6-diftuoro-phenyl)-ethoxy]-5-(2-cyclohexyl-ethoxy)-pyridin-2-ylamine], under setting [1], the IC50 was found to be 7.5 µM.
Regarding `Nc1ncc(-c2ccc(OCC(=O)N3CCC[C@@H]3CN3CCCC3)cc2)cc1OCc1c(F)cccc1F` [Example I-126, 2-{4-[6-Amino-5-(2,6-difluoro-benzyloxy)-pyridin-3-yl]-phenoxy}-1-[(2R)-2-pyrrolidin-1-ylmethyl-pyrrolidin-1-yl]-ethanone], the IC50 is 3.58 µM.
`CC(=O)N1CCN(C(=O)c2ccc(-c3cnc(N)c(OCc4ccc(F)cc4Cl)c3)cc2)CC1` [Example I-208, 1-(4-{4-(6-Amino-5-(2-chloro-4-fluoro-benzyloxy)-pyridin-3-yl]-benzoyl}-piperazin-1-yl)-ethanone]: the IC50 (Table 2) came to 5.3 µM.
Regarding `CC(C)c1ccc(NC(=O)C(Oc2cc(-c3ccc(OCCN4CCOCC4)cc3)cnc2N)c2ccccc2)cc1` (stereo not shown) [Example I-109, 2-{2-Amino-5-[4-(2-morpholin-4-yl-ethoxy)-phenyl]-pyridin-3-yloxy}-N-(4-isopropyl-phenyl)-2-phenyl-acetamide], the IC50 was greater than 20 µM.
Still for that read-out and setting: to `Nc1ncc(-c2ccc(C(=O)N3CCC[C@H]3CN3CC[C@@H](O)C3)cc2)cc1OCc1c(Cl)cccc1Cl` [Example I-52, {4-[6-Amino-5-(2,6-dichloro-benzyloxy)-pyridin-3-yl]-phenyl}-{(2S)-2-[(3R)-3-hydroxy-pyrrolidin-1-ylmethyl]-pyrrolidin-1-yl}-methanone] belongs 0.53 µM.
In the case of `CC(Oc1cc(-c2cccc(C(=O)N3CCN(C)CC3)n2)cnc1N)c1c(Cl)ccc(F)c1Cl` (stereo not shown) [Example I-512, {6′-Amino-5′-[1-(2,6-dichloro-3-fluoro-phenyl)-ethoxy]-[2,3′]bipyridinyl-6-yl}-(4-methyl-piperazin-1-yl)-methanone], under setting [1], the half-inhibitory concentration (IC50) was 0.0629 µM.
For `CC(Oc1cc(-c2cccc(C(=O)NCCN3CCOCC3)c2)cnc1N)c1c(F)ccc(F)c1Cl` (stereo not shown) [Example I-350, 3-{6-Amino-5-[1-(2-chloro-3,6-difluoro-phenyl)-ethoxy]-pyridin-3-yl}-N-(2-morpholin-4-yl-ethyl)-benzamide], the IC50 (Table 2) is 0.39 µM.
Turning to `CN(C)[C@@H]1CCN(C(=O)c2cc3cc(-c4cnc(N)c(OCc5c(Cl)cccc5Cl)c4)ccc3[nH]2)C1` [Example I-79, {5-[6-Amino-5-(2,6-dichloro-benzyloxy)-pyridin-3-yl]-1H-indol-2-yl}-[(3R)-3-dimethylamino-pyrrolidin-1-yl]-methanone], the IC50 is 0.18 µM.
Same read-out and setting: to `Nc1ncc(-c2ccc(F)cc2)cc1OCc1c(Cl)cccc1Cl` [Example I-8, 3-(2,6-Dichloro-benzyloxy)-5-(4-fluoro-phenyl)-pyridin-2-ylamine] belongs 8.01 µM; to `Nc1ncc(-c2ccc(C(=O)NCCCN3CCCC3)cc2)nc1OCc1c(F)ccc(F)c1Cl` [II-38, 4-[5-Amino-6-(2-chloro-3,6-difluoro-benzyloxy)-pyrazin-2-yl]-N-(3-pyrrolidin-1-yl-propyl)-benzamide], 0.58 µM.
The same measure, in the same setting: the result for `CC(Oc1nc(-c2cccc(C(=O)NCCCN3CCCC3)c2)cnc1N)c1c(Cl)ccc(F)c1Cl` (stereo not shown) [II-96, 3-{5-Amino-6-[1-(2,6-dichloro-3-fluoro-phenyl)-ethoxy]-pyrazin-2-yl}-N-(3-pyrrolidin-1-yl-propyl)-benzamide] reads 0.15 µM; that for `Nc1ncc(-c2ccc(NS(=O)(=O)CCN3CCOCC3)cc2)nc1OCc1c(F)ccc(F)c1Cl` [II-9, 2-Morpholin-4-yl-ethanesulfonic acid {4-[5-amino-6-(2-chloro-3,6-difluoro-benzyloxy)-pyrazin-2-yl]-phenyl}-amide], 1.26 µM.
In the case of `CN(C)[C@H]1CCN(C(=O)c2cccc(-c3cnc(N)c(OCc4c(F)ccc(F)c4Cl)c3)c2)C1` [Example I-231, {-[6-Amino-5-(2-chloro-3,6-difluoro-benzyloxy)-pyridin-3-yl]-phenyl}-[(3S)-3-dimethylamino-pyrrolidin-1-yl]-methanone], the half-inhibitory concentration (IC50) (Table 2) was 0.128 µM.
Turning to `CC(Oc1nc(-c2cccc(C(=O)N3CCN(C)CC3)c2)cnc1N)c1c(Cl)ccc(F)c1Cl` (stereo not shown) [II-130, (3-{5-Amino-6-[1-(2,6-dichloro-3-fluoro-phenyl)-ethoxy]-pyrazin-2-yl}-phenyl)-(4-methyl-piperazin-1-yl)-methanone], the 50% inhibitory concentration (IC50) is 0.17 µM.
For `CC(Oc1cc(-c2ccc(C(=O)N3CC[C@@H](O)C3)cc2)cnc1N)c1c(Cl)ccc(F)c1Cl` (stereo partly drawn) [Example I-307, (4-{6-Amino-5-[1-(2,6-dichloro-3-fluoro-phenyl)-ethoxy]-pyridin-3-yl}-phenyl)-((R)-3-hydroxy-pyrrolidin-1-yl)-methanone], where the note is “Table 2”, the half-inhibitory concentration (IC50) stood at 0.022 µM.
Still for that read-out and setting: to `CC(Oc1cc(-c2cccc(C(=O)N3CC[C@@H](N)C3)c2)cnc1N)c1c(F)ccc(F)c1Cl` (stereo partly drawn) [Example I-344, (3-{6-Amino-5-[1-(2-chloro-3,6-difluoro-phenyl)-ethoxy]-pyridin-3-yl}-phenyl)-((R)-3-amino-pyrrolidin-1-yl)-methanone] belongs 0.12 µM.
Turning to `Nc1ncc(-c2ccc(C(=O)N3CCC[C@@H]3CN3CCCC3)cc2)nc1OCc1c(F)ccc(F)c1Cl` [II-34, {4-[5-Amino-6-(2-chloro-3,6-difluoro-benzyloxy)-pyrazin-2-yl]-phenyl)-[(2R)-2-pyrrolidin-1-ylmethyl-pyrrolidin-1-yl]-methanone], the IC50 was determined as 0.15 µM.
The same measure, in the same setting: the result for `Nc1ncc(-c2ccc(OCCN3CCOCC3)cc2)cc1OCc1cccc([N+](=O)[O-])c1` [Example I-106, 5-[4-(2-morpholin-4-yl-ethoxy)-phenyl]-3-(3-nitro-benzyloxy)-pyridin-2-ylamine] reads 12.6 µM; that for `CC(Oc1nc(-c2ccnc(C(=O)N3CCN(C)CC3)c2)cnc1N)c1c(Cl)ccc(F)c1Cl` (stereo not shown) [II-206, (4-{5-Amino-6-[1-(2,6-dichloro-3-fluoro-phenyl)-ethoxy]-pyrazin-2-yl}-pyridin-2-yl)-(4-methyl-piperazin-1-yl)-methanone], 0.1 µM.
In the case of `Nc1ncc(-c2cccc(NS(=O)(=O)CCN3CC[C@@H](O)C3)c2)nc1OCc1c(F)ccc(F)c1Cl` [II-31, 2-[(3R)-3-Hydroxy-pyrrolidin-1-yl]-ethanesulfonic acid {3-[5-amino-6-(2-chloro-3,6-difluoro-benzyloxy)-pyrazin-2-yl]-phenyl}-amide], the IC50 stood at 2.16 µM.
For the molecule `Nc1ncc(-c2ccccn2)cc1OCc1c(Cl)cccc1Cl` [Example I-505, 5-′(2,6-Dichloro-benzyloxy)-[2,3′]bipyridinyl-6′-ylamine], the concentration for half-maximal inhibition (IC50) under setting [1] stood at 2.84 µM.
As for `CC(=O)N1CCN(CCNC(=O)c2ccc(-c3cnc(N)c(OC(C)c4c(F)ccc(F)c4Cl)n3)cc2)CC1` (stereo not shown) [II-119, N-[2-(4-Acetyl-piperazin-1-yl)-ethyl]-4-{5-amino-6-[1-(2-chloro-3,6-difluoro-phenyl)-ethoxy]-pyrazin-2-yl}-benzamide], the 50% inhibitory concentration (IC50) was determined as 0.48 µM.
The same measure, in the same setting: the result for `COc1ccccc1-c1cnc(N)c(OCc2c(Cl)cccc2Cl)c1` [Example I-24, 3-(2,6-Dichloro-benzyloxy)-5-(2-methoxy-phenyl)-pyridin-2-ylamine] reads 11.5 µM; that for `CC(Oc1nc(-c2cccc(C(=O)N3C[C@@H](C)N[C@@H](C)C3)c2)cnc1N)c1c(Cl)cccc1Cl` (stereo partly drawn) [II-171, (3-{5-Amino-6-[1-(2,6-dichloro-phenyl)-ethoxy]-pyrazin-2-yl}-phenyl)-((3R,5S)-3,5-dimethyl-piperazin-1-yl)-methanone], 0.36 µM.
The same measure, in the same setting: to `CCN(CC)Cc1c[nH]c2ccc(-c3cnc(N)c(OCc4c(F)ccc(F)c4Cl)n3)cc12` [II-63, 3-(2-Chloro-3,6-difluoro-benzyloxy)-5-(3-diethylaminomethyl-1H-indol-5-yl)-pyrazin-2-ylamine] belongs 0.73 µM.
In the case of `Nc1ncc(-c2cccc(C(=O)NCCCN3CCCC3)c2)cc1OCc1c(F)ccc(F)c1Cl` [Example I-236, 3-[6-Amino-5-(2-chloro-3,6-difluoro-benzyloxy)-pyridin-3-yl]-N-(3-pyrrolidin-1-yl-propyl)-benzamide], for the setting “Table 2”, the half-inhibitory concentration (IC50) is 0.28 µM.
In the case of `CC(Oc1cc(-c2cncc(C(=O)N3CCN(C)CC3)c2)cnc1N)c1c(Cl)ccc(F)c1Cl` (stereo not shown) [Example I-513, {6′-Amino-5′-[1-(2,6-dichloro-3-fluoro-phenyl)-ethoxy]-[3,3′]bipyridinyl-5-yl}-(4-methyl-piperazin-1-yl)-methanone], the half-inhibitory concentration (IC50) under setting [1] was determined as 0.034 µM.
